# US20260224549A1, “COMPOUNDS, COMPOSITIONS, AND METHODS FOR TREATING, AMELIORATING, AND/OR PREVENTING PAIN” (priority 2023, published 2026)
# Like-named read-outs stand apart in the source and are kept apart here.
# Procedure: The screen was performed using solvent recrystallizations using different conditions, as well as non-competitive slurry experiments, to manipulate the solid-state form of the test material. Samples generated during the study were characterized using differential scanning calorimetry (DSC), thermogravimetric analysis (TGA), powder X-ray diffraction (XRD), and dynamic vapor sorption (DVS).
# To perform the solvent-based portion of the polymorph screen, the test material was recrystallized using various solvents under approximately 78 different crystal growth conditions. The scale of the recrystallization experiments was approximately 1 to 20 mL. The method of changing the crystal growth conditions was by using single and binary arrays of solvent mixtures. The saturation temperature, growth temperature, and evaporation rate were also varied to create additional differences in crystal growth conditions.
# Saturated solutions were prepared by agitating excess test material in contact with the various solvent systems at the saturation temperature. The mother liquor was separated from the residual solids by filtration if solids remained in the solution. The mother liquor was then heated above the saturation temperature to dissolve any remaining solids. The temperature of each solution was then adjusted to the growth temperature and a controlled nitrogen shear flow was introduced to begin solvent evaporation.
# In addition to the solvent recrystallization experiments, non-competitive slurry experiments were performed to search for new solid-state forms. These experiments rely on solubility differences of different polymorphic form, if the compound exists in different polymorphic forms. As such, only polymorphs having a lower solubility (i.e., increased stability) than the original crystalline form can result from a non-competitive slurry experiment.
# Essentially, when a solid is mixed with solvent to create slurry, a saturated solution is formed. The solution is saturated with respect to the polymorphic form dissolved.
# The slurry experiments described herein were performed by exposing excess supplied material (i.e., Form A) to solvents and agitating the resulting suspensions for one week at ambient temperature. The solids were filtered and analyzed by XRD to determine the resulting form(s).
# Solids generated from the solvent based recrystallization panels and otherwise provided samples were analyzed by powder XRD. To mitigate preferred grain effects, a two dimensional detection system was used to collect all the XRD screening data. The two dimensional detector integrates along the concentric Debye cones which helps reduce pattern variation. If bright spots appear in the conical rings, it indicates strong preferred grain effects that can lead to considerable variability in the observed diffraction patterns including changes in peak intensities.
# The analysis entailed cluster analysis and multivariate statistics to group together any patterns that were determined to be statistically the same.
# In the dendrogram, each pair of diffraction patterns is connected via a single node, which corresponds to a dissimilarity value (between 0 and 1) on the y-axis. The higher the connecting node is, the more dissimilar the two patterns are. A threshold dissimilarity value (~0.4 in this case) is used to group similar patterns into clusters, which should correspond to different solid state forms. The cluster plot is a 3D representation of the same analysis.
# [1] = Panel: Anti-solvent addition, 15 experiments
# [2] = Panel: Cooled to −20° C., single solvent, 12 experiments
# [3] = Panel: Fast evaporation, binary solvent, 13 experiments
# [4] = Panel: Fast evaporation, single solvent, 65° C., 14 experiments
# [5] = Panel: Fast evaporation, single solvent, ambient, 24 experiments
# [6] = Panel: Non-competitive slurries, 15 experiments
# [7] = Total of all panels, 100 experiments
smiles,measurement,setting,value
"CN(C)C[C@H]1CN(CCc2ccsc2)CC[C@]1(O)c1cccc(C(N)=O)c1 [Compound I, 3-(3S, 4R)-3-((dimethylamino)methyl)-4-hydroxy-1-(2-(thiophen-3-yl)ethyl)piperidin-4-yl-benzamide]",No. of experiments giving Amorphous Form,[1],0
same,No. of experiments giving Form A,[1],9
same,No. of experiments with No solid recovered,[1],6
same,No. of experiments giving Amorphous Form,[2],0
same,No. of experiments giving Form A,[2],0
same,No. of experiments with No solid recovered,[2],12
same,No. of experiments giving Amorphous Form,[3],1
same,No. of experiments giving Form A,[3],9
same,No. of experiments with No solid recovered,[3],3
same,No. of experiments giving Amorphous Form,[4],2
same,No. of experiments giving Form A,[4],4
same,No. of experiments with No solid recovered,[4],8
same,No. of experiments giving Amorphous Form,[5],6
same,No. of experiments giving Form A,[5],1
same,No. of experiments with No solid recovered,[5],17
same,No. of experiments giving Amorphous Form,[6],0
same,No. of experiments giving Form A,[6],13
same,No. of experiments with No solid recovered,[6],2
same,No. of experiments giving Amorphous Form,[7],9
same,No. of experiments giving Form A,[7],43
same,No. of experiments with No solid recovered,[7],48
same,% of Total experiments giving Amorphous Form,"all panels, 100 experiments",9%
same,% of Total experiments giving Form A,"all panels, 100 experiments",43%
same,% of Total experiments with No solid recovered,"all panels, 100 experiments",48%
